Test results: patent US5874461A, “Use of Nebivolol as an anti-atherogenic” (priority 1995, dated 1999)

Experiments:
human LDL = experiment: In vitro oxidation of human LDL (Cu-induced conjugated diene formation at 234 nm); assay type: biochemical; details: in vitro
Procedure: In vitro oxidation of human LDL Human venous blood was collected on EDTA (2.68 mM final concentration). Plasma was isolated by centrifugation. NaBr (37.3 mg/ml) was added and solubulized (final density 1.036 g/ml). Centrifuge tubes were first filled to a level corresponding to 2/3 of their maximal volume, further filled with a NaBr solution of 1.036 g/ml and then centrifuged for 18 hours at 45000 rpm in a 50 Ti rotor (Beckmann). After centrifugation, floating lipoproteins were discarded. The remaining solution was adjusted to a density of 1.055 g/ml. Filling of the centrifuge tubes and centrifugation were repeated as described above. After centrifugation, floating LDL was dialysed against a buffer containing 127 mM NaCl, 8 mM Na2 HPO4.2H2 O, 2.7 mM KCl and 1.47 mM KH2 PO4 at pH 7.4. After dialysis, LDL was filtered though a Millipore filter (0.45 μM) and protein content was determined. A dilution of 25 μg/ml was prepared with a millipored dialysis buffer. Oxidation was determined in a Pharmacia Ultraspec III spectrophotometer. Conjugated diene formation was registered at 234 nm. Two μl of a drug or solvent (DMSO) were added to Eppendorf tubes followed by 1 ml of LDL (25 μg/ml) and these substances were gently mixed and centrifuged for 1 min at 13000 g. The solution was pipetted in a Quartz cuvet that was thermostatised in the spectrophotometer at 37° C. After equilibration, the oxidation reaction was started by the addition of CuSO4 (final concentration 10 μM). Absorbance was measured every 3 minutes during the time course of the experiment. The absorbance at 234 nm was divided into three phases: a lag phase, a propagation phase and a decomposition phase (FIG. 1). The lag phase was defined as the intercept with the baseline of the tangent of the slope of the absorbance curve of the propagation phase. The rate of oxidation was defined as the tangent of the slope. Tmax was defined as the time required to attain the maximum absorbance between the propagation and the decomposition phase. The absorbance at tmax minus the absorbance at to was taken as an indicator of the total amount of dienes formed. To verify the reproducibility of the assay, a reference LDL sample was prepared and kept in darkness under nitrogen at 4° C. This reference sample was included in every oxidation experiment. LDL was isolated from 23 subjects. Plasma cholesterol ranged from 156 to 278 mg/dl (mean 213 mg/dl), triglycerides ranged from 47 to 328 mg/dl (mean 191 mg/dl) and phospholipids ranged from 178 to 327 mg/dl (mean 231 mg/dl).

[1] = system: rats (age-associated vascular pathology); experiment: In-vivo anti-atheromatic effect: 24-month oral study in rats, histological score of vascular degeneration/aging
Procedure: In order to verify whether nebivolol had any effects on age-associated vascular pathology, a number of rats were administered nebivolol orally at dosages of 0 (carrier-only), 2.5, 10 and 40 mg/kg during 24 months. As a carrier there was used 2-hydroxypropyl-β-cyclodextrin which improves the bioavailability of nebivolol. At each dose a male and a female group of 50 were entered in the 2 year study. […] The test animals were autopsied and observed for histological non-neoplastic changes.
vasculopathy of the abdominal mesothelia, pancreas, and testis,
focal and diffuse hyperplasia of the parathyroid gland, and
the renal histology, in particular the number of basophilic tubuli, evidence for chronic renal disease and for mineralization.
Histopathological observations received a score from 0 to 3 as follows:
0: no histological change
1: slight histological change
2: moderate histological change
3: severe histological change.
For each observation a mean score was calculated. The observed ratings were analysed using the Mann-Whitney U test (two tailed probability) to detect statistically significant differences between the control groups and the treated groups. Significance computed by Mann-Whitney U test two-tailed: * p<0.05 ** p<0.01 p<0.001.

[2] = system: spontaneous hypertensive rats; details: acute; cited from earlier work
anaesthetized dogs = details: anaesthesized dogs; cited from earlier work
[3] = females, 2.5 mg/kg oral, 24 months
[4] = females, 10 mg/kg oral, 24 months
[5] = females, 40 mg/kg oral, 24 months
[6] = males, 2.5 mg/kg oral, 24 months
[7] = males, 10 mg/kg oral, 24 months
[8] = males, 40 mg/kg oral, 24 months

With `O[C@H](CNC[C@@H](O)[C@H]1CCc2cc(F)ccc2O1)[C@@H]1CCc2cc(F)ccc2O1` (relative stereo) [nebivolol, (RSSS) and (SRRR) α,α'-iminobis(methylene)bis[6-fluoro-2-chroman-methanol]] the “antioxidative effect on human LDL” value (human LDL) was “no antioxidative effect”, the “normal aging of the vascular system” value ([1]; chronic treatment, versus control animals) was “the normal aging of the vascular system as seen in the control animals is suppressed” and the “Kidney: basophilic tubuli, mean score (0-3)” value (shortened to “Kidney: basophilic tubuli”) [1, 3] was 0.18. The “Kidney: chronic disease, mean score (0-3)” value (from here on “Kidney: chronic disease”) [1, 3] was 0.88, the “Kidney: mineralization (parenchum/pelvis), mean score (0-3)” value [1, 3] was 0.84 and the “Pancreas: vasculopathy, mean score (0-3)” value [1, 3] was 0.04. For the same compound, the “Kidney: basophilic tubuli” value [1, 4] was 0.18, the “Kidney: chronic disease” value [1, 4] was 0.92 and the “Kidney: mineralization (parenchum/pelvis), mean score (0-3)” value [1, 4] was 0.64. The “Pancreas: vasculopathy, mean score (0-3)” value [1, 4] was 0.02, the “Kidney: basophilic tubuli” value [1, 5] was 0.42 and the “Kidney: chronic disease” value [1, 5] was 0.78. For the same compound, the “Kidney: mineralization (parenchum/pelvis), mean score (0-3)” value [1, 5] was 0.14, the “Pancreas: vasculopathy, mean score (0-3)” value [1, 5] was 0.00 and the “Kidney: basophilic tubuli” value [1, 6] was 0.18. The “Kidney: chronic disease” value [1, 6] was 1.32, the “Pancreas: vasculopathy, mean score (0-3)” value [1, 6] was 0.04 and the “Parathyroid gland: diffuse hyperplasia, mean score (0-3)” value (shortened to “Parathyroid gland: diffuse hyperplasia”) [1, 6] was 0.08. For the same compound, the “Parathyroid gland: focal hyperplasia, mean score (0-3)” value (“Parathyroid gland: focal hyperplasia” below) [1, 6] was 0.04, the “Testis: vasculopathy, mean score (0-3)” value [1, 6] was 0.20 and the “Kidney: basophilic tubuli” value [1, 7] was 0.18. For the same compound, the “Kidney: chronic disease” value [1, 7] was 1.24, the “Pancreas: vasculopathy, mean score (0-3)” value [1, 7] was 0.02 and the “Parathyroid gland: diffuse hyperplasia” value [1, 7] was 0.15. For the same compound, the “Parathyroid gland: focal hyperplasia” value [1, 7] was 0.02, the “Testis: vasculopathy, mean score (0-3)” value [1, 7] was 0.08 and the “Abdominal mesothelia: vasculopathy, mean score (0-3)” value [1, 8] was 0.00. The “Kidney: basophilic tubuli” value [1, 8] was 0.60, the “Kidney: chronic disease” value [1, 8] was 0.66 and the “Pancreas: vasculopathy, mean score (0-3)” value [1, 8] was 0.00. For the same compound, the “Parathyroid gland: diffuse hyperplasia” value [1, 8] was 0.02, the “Parathyroid gland: focal hyperplasia” value [1, 8] was 0.00 and the “Testis: vasculopathy, mean score (0-3)” value [1, 8] was 0.02. For the same compound, the blood pressure [2] was “acutely lowers blood pressure”, the stroke volume (anaesthetized dogs) was “augments stroke volume” and the “total peripheral vascular resistance” value (anaesthetized dogs) was “decreases total peripheral vascular resistance”.
